# Paper PMC11680018, “Study of Cytotoxicity of Spiro-Fused [3-Azabicyclo[3.1.0]hexane]oxindoles and Cyclopropa[a]pyrrolizidine-oxindoles Against Tumor Cell Lines” (Pharmaceuticals, 2024)
# Like-named read-outs stand apart in the source and are kept apart here.
# Experiments:
# [1] = test system: mouse colon carcinoma (CT26) cell line; assay: MTS cell proliferation assay, CT26; format: cell-based; settings: for IC50: Mus musculus, MTS; for SI (selectivity index) CT26: ratio of cytotoxicity PBMC / CT26, calculated at 72 h
# Procedure: (§1) Cancer cell lines are valuable in vitro model systems that are widely used in cancer research and drug discovery. Their use is mainly linked to their possibility to provide for experimental purposes an unlimited source of biological material. Here, the 24 and 72 h in vitro MTS assay was used to determine the antiproliferative activity of synthesized spiro-fused cyclopropa[a]pyrrolizidine-2,3′-oxindoles and [3-azabicyclo[3.1.0]hexane]-oxindoles against human erythroleukemia (K562), acute T cell leukemia (Jurkat), cervical carcinoma (HeLa), melanoma (Sk-mel-2), breast cancer adenocarcinoma (MCF-7) as well as mouse colon carcinoma (CT26) cell lines. […] The full results of these investigations are presented in the Supporting Information Figures S1–S6. […] An evaluation of the cytotoxicity of the selected compounds towards normal cells (peripheral blood mononuclear cells) was performed additionally to understand their respective relative selectivities. The selectivity index was obtained using the ratio of measured cytotoxicity between the PBMC cells and each of the cancer cell lines, and the results are presented in Table 3.
# (§2) The human erythroleukemia (K-562), cervical carcinoma (HeLa) as well as mouse colon carcinoma (CT26) cell lines were obtained from the Bank of Cell Cultures of the Institute of Cytology of the Russian Academy of Sciences; the human melanoma (Sk-mel-2) cell line was obtained from the Bank of Cell Cultures of the Institute of Cytology and Genetics, Siberian Branch of the Russian Academy of Sciences. The acute T cell leukemia (Jurkat) cell line was obtained from the Bank of Cell Cultures of the Institute of Immunology of the Russian Academy of Medical Sciences. The peripheral blood mononuclear cells (PBMC) were isolated from the blood of healthy donors. K-562, Jurkat, MCF-7, PBMC and CT26 cells were grown on RPMI medium (Hyclone, GE Healthcare Life Sciences, Logan, UT, USA) supplemented with 10% (v/v) fetal bovine serum (Hyclone, GE Healthcare Life Sciences, Logan, UT, USA) and gentamicin (Sigma-Aldrich, St. Louis, MO, USA) at 37 °C in a humidified atmosphere with 5% CO2. HeLa and Sk-mel-2 cells were cultured with the same supplements and conditions in DMEM medium (Hyclone, GE Healthcare Life Sciences, Logan, UT, USA).
# (§3) To evaluate the in vitro toxicity of the compounds synthesized, cells were seeded into 96-well plates at a density of 5 × 10^3 cells per well. On the next day, the tested compounds were added to the wells at concentrations ranging from 1 to 30 μg/mL, followed by incubation for 1 and 3 days. Cell proliferation was determined by adding 20 μL of MTS reagent (BioVision, Milpitas, CA, USA) stock solution per well. The plates were incubated for 2 h at 37 °C in a humidified, 5% CO2 atmosphere. The plates were then read at 495 nm using a plate spectrophotometer (Multiskan GO, Thermo Fisher Scientific, Waltham, MA, USA). All samples were measured in triplicate.
# [2] = test system: melanoma (Sk-mel-2) cell line; assay: MTS cell proliferation assay, Sk-mel-2; format: cell-based, human; settings: for IC50: Homo sapiens, MTS; for SI (selectivity index) Sk-mel-2: ratio of cytotoxicity PBMC / Sk-mel-2, calculated at 72 h
# Procedure: as §1, §2, §3
# [3] = test system: human erythroleukemia (K562) cell line; assay: MTS cell proliferation assay, K562; format: cell-based; settings: for IC50: Homo sapiens, MTS; for SI (selectivity index) K562: ratio of cytotoxicity PBMC / K562, calculated at 72 h
# Procedure: as §1, §2, §3
# [4] = test system: cervical carcinoma (HeLa) cell line; assay: MTS cell proliferation assay, HeLa; format: cell-based, human; settings: for IC50: Homo sapiens, HeLa, MTS; for SI (selectivity index) HeLa: ratio of cytotoxicity PBMC / HeLa, calculated at 72 h
# Procedure: as §1, §2, §3
# [5] = test system: human melanoma (Sk-mel-2) cell line; assay: Cell motility by scratch test; format: cell-based; settings: 10 μg/mL, 36 h, serum-free DMEM; nontreated cells 69.5 ± 17.2
# Procedure: To assess the potential ability of spiro-fused [3-azabicyclo[3.1.0]hexane]oxindoles 4, 11, 12, 18, 24 and cyclopropa[a]pyrrolizidine-2,3′-oxindole 2 to inhibit metastasis associated with cell motility, a scratch test was performed on the human melanoma (Sk-mel-2) cell line. Different fields were analyzed by bright field, and each scratch area was photographed at 0 and 36 h for non-toxic and fast cell visualization. Nontreated Sk-mel-2 cells filled 69.5 ± 17.2, 41.5 ± 5.3, 59.7 ± 8.1, 49.3 ± 5.3, 43.0 ± 12.6, 26.1 ± 2.5 and 55.9 ± 8.6% of the scratched strip while under treatment with spiro-fused oxindole derivatives 2, 4, 11, 12, 18 and 24 cells, respectively.
# Cells were seeded at a density of 5 × 10^5 cells per dish onto petri dishes and grown to confluency. A 200 μL pipette tip was used to make scratch wounds and detached cells were removed after that by washing with phosphate-buffered saline. Culture media was replaced with serum-free DMEM in order to inhibit cell proliferation. Compounds to be screened were added at a dose of 10 μg/mL to the cultures and incubated for 36 h. Different fields were analyzed by bright field, and each scratch area was photographed at 0 and 36 h. Images were captured using an Axio Observer Z1 confocal microscope (Carl Zeiss MicroImaging GmbH, Jena, Germany). The percent of wound closure in five randomly chosen fields was calculated with ImageJ software, 1.52v.
# [6] = test system: acute T cell leukemia (Jurkat) cell line; assay: MTS cell proliferation assay, Jurkat; format: cell-based, human; settings: for IC50: Homo sapiens, Jurkat, MTS; for SI (selectivity index) Jurkat: ratio of cytotoxicity PBMC / Jurkat, calculated at 72 h
# Procedure: as §1, §2, §3
# [7] = test system: breast cancer adenocarcinoma (MCF-7) cell line; assay: MTS cell proliferation assay, MCF-7; format: cell-based, human; settings: for IC50: Homo sapiens, MTS; for SI (selectivity index) MCF-7: ratio of cytotoxicity PBMC / MCF-7, calculated at 72 h
# Procedure: as §1, §2, §3
# [8] = test system: HeLa cells actin cytoskeleton; assay: Actin cytoskeleton staining, confocal microscopy, HeLa; format: cell-based, human; settings: 10 μg/mL, 24 h
# Procedure: It was found using confocal microscopy that incubation with spiro-fused [3-azabicyclo[3.1.0]hexane]oxindoles 4, 8, 17, 18, 22, 24 and cyclopropa[a]pyrrolizidine-2,3′-oxindole 2 led to significant changes in the HeLa cells’ actin cytoskeleton structure leading to the disappearance of stress fibers (granular actin was distributed diffusely in the cytoplasm in up to 38% of treated cells) and changes in the number of filopodia-like deformations (reduced from 93% in control cells to 64% after treatment). The impact on the Sk-mel-2 cells’ actin cytoskeleton structure was even greater: granular actin was distributed diffusely in the cytoplasm in up to 90% of treated cells while the number of filopodia-like deformations was reduced by up to 23%. Such changes in the cytoskeleton may indicate a change in the motor activity of cells, which may indicate a decrease in the ability of tumor cells to metastasize.
# HeLa cells were seeded at a density of 2 × 10^5 cells per dish onto a petri dish with cover slips and incubated for 24 h. After that, cells were treated with chosen compounds (10 μg/mL) for 24 h. The medium was removed and cells were fixed with 4% paraformaldehyde (Sigma-Aldrich, St. Louis, MO, USA), washed three times with PBS, and permeabilized with 0.3% Triton-X100 (Sigma-Aldrich, St. Louis, MO, USA). The cells were rinsed three times with PBS. Actin filaments (microfilaments) were stained with rhodamine–phalloidin (Invitrogen, Carlsbad, CA, USA) at 37 °C for 15 min. The samples were rinsed three times with PBS, followed by embedding in Fluoroshield medium (Sigma-Aldrich, St. Louis, MO, USA). Cells were imaged using an Axio Observer Z1 confocal microscope (Carl Zeiss MicroImaging GmbH, Jena, Germany). In each experiment, at least 30 cells were imaged. Images were analyzed by a pathologist blinded to the treatment mode used for each group using ImageJ software, 1.52v.
# [9] = test system: peripheral blood mononuclear cells (PBMC); assay: MTS cytotoxicity towards normal cells, PBMC; format: cell-based; settings: Homo sapiens
# Procedure: as §1, §2, §3
# K562 cells = assay: Cell cycle analysis by flow cytometry; format: cell-based, human; settings: 24 h; for K562 cells in SubG1 phase: control 4.5 ± 0.9; for K562 cells in G2/M phase: control 23.1 ± 1.7; for K562 cells in S phase: control 31.9 ± 1.0; for K562 cells in G0/G1 phase: control 40.5 ± 1.3
# Excerpt: Since growth inhibition may be a result of cell cycle arrest at a particular point, the specific antiproliferative activity of several cycloadducts was further evaluated by flow cytometry to study their impact on the progression of the cell cycle in K562 cells. The assay utilizes propidium iodide-based staining of DNA content to distinguish and measure the accumulation of cells in each cell cycle phase (SubG, G0/G1, S and G2/M).
# The distribution of K562 cells in the G0/G1-, S- and G2/M-phases of the cell cycle was obtained by quantification of DNA content using flow cytometry in DAPI-stained cells. Briefly, cells were seeded at a density of 5 × 10^4 cells per well in 24-well plates. […] After incubation with drugs, the cells were harvested by pipetting. This was followed by treatment with 0.2 mg/mL saponin (Fluka, Waltham, MA, USA) and 0.05 mg/mL DAPI (Thermo scientific, Rockford, IL, USA). After washing, the samples were analyzed using a standard flow cytometer (BD FACSCanto II, Becton Dickinson, San Jose, CA, USA). A total of 10,000 events were acquired for the samples. Data processing was performed using the BD FACSDiva 9.0 software.
# [10] = read-out: IC50 CT26 24 h, CT26, 24 h
# [11] = CT26, 72 h, read-out: IC50 CT26 72 h
# [12] = read-out: IC50 Sk-mel-2 24 h, Sk-mel-2, 24 h
# [13] = Sk-mel-2, 72 h, read-out: IC50 Sk-mel-2 72 h
# [14] = read-out: IC50 K562 24 h, K562, 24 h
# [15] = K562, 72 h, read-out: IC50 K562 72 h
# [16] = read-out: IC50 Jurkat 24 h, 24 h
# [17] = 72 h, read-out: IC50 Jurkat 72 h
# [18] = MCF7, read-out: IC50 MCF-7 24 h, MCF-7, 24 h
# [19] = MCF7, MCF-7, 72 h, read-out: IC50 MCF-7 72 h
SMILES,"IC50 [1, 10] [µM]","IC50 [1, 11] [µM]","IC50 [2, 12] [µM]","IC50 [2, 13] [µM]","IC50 [3, 14] [µM]","IC50 [3, 15] [µM]","IC50 ([4]; read-out: IC50 HeLa 24 h, 24 h) [µM]","IC50 ([4]; 72 h, read-out: IC50 HeLa 72 h) [µM]","IC50 [6, 16] [µM]","IC50 [6, 17] [µM]","IC50 [7, 18] [µM]","IC50 [7, 19] [µM]",Part of the scratched strip filled by Sk-mel-2 cells [5] [%],SI (selectivity index) Jurkat [6],SI (selectivity index) MCF-7 [7],SI (selectivity index) CT26 [1],"IC50 ([9]; 72 h, read-out: IC50 PBMC 72 h) [µM]","IC50 ([9]; read-out: IC50 PBMC 24 h, 24 h) [µM]",SI (selectivity index) K562 [3],SI (selectivity index) HeLa [4],other results
COC(=O)C1C2(c3ccccc3)C3CCCN3C3(C(=O)Nc4ccc(Cl)cc43)C12c1ccccc1 (centres unmarked) [Compound 12],,,,,,,,,,,,,43.0 ± 12.6,,,,,,,,
"COc1cccc2c1C(=O)c1c(O)c3c(c(O)c1C2=O)C[C@@](O)(C(=O)CO)C[C@@H]3O[C@H]1C[C@H](N)[C@H](O)[C@H](C)O1 [Doxorubicin, reference compound]",19 ± 3,6 ± 1,,,16 ± 3,1 ± 0.4,4 ± 1,1 ± 0.1,,,,,,,,2,9 ± 1,11 ± 1,9,9,K562 cells in SubG1 phase (K562 cells; 1 μg/mL): 43.0 ± 1.0%; K562 cells in G2/M phase (K562 cells; 1 μg/mL): 2.2 ± 0.3%; K562 cells in S phase (K562 cells; 1 μg/mL): 8.8 ± 1.7%; K562 cells in G0/G1 phase (K562 cells; 1 μg/mL): 45.6 ± 0.8%; K562 cells in SubG1 phase (K562 cells; 5 μg/mL): 93.1 ± 0.7%; K562 cells in G2/M phase (K562 cells; 5 μg/mL): 0.2 ± 0.1%; K562 cells in S phase (K562 cells; 5 μg/mL): 0.8 ± 0.1%; K562 cells in G0/G1 phase (K562 cells; 5 μg/mL): 5.9 ± 0.6%

# Now from value to compound, other results behind:
"IC50 [1, 10] [µM]","IC50 [1, 11] [µM]","IC50 [2, 12] [µM]","IC50 [2, 13] [µM]","IC50 [3, 14] [µM]","IC50 [3, 15] [µM]","IC50 ([4]; read-out: IC50 HeLa 24 h, 24 h) [µM]","IC50 ([4]; 72 h, read-out: IC50 HeLa 72 h) [µM]","IC50 [6, 16] [µM]","IC50 [6, 17] [µM]","IC50 [7, 18] [µM]","IC50 [7, 19] [µM]",SMILES,Part of the scratched strip filled by Sk-mel-2 cells [5] [%],SI (selectivity index) Jurkat [6],SI (selectivity index) MCF-7 [7],SI (selectivity index) CT26 [1],"IC50 ([9]; 72 h, read-out: IC50 PBMC 72 h) [µM]","IC50 ([9]; read-out: IC50 PBMC 24 h, 24 h) [µM]",SI (selectivity index) K562 [3],SI (selectivity index) HeLa [4],other results
> 40,19 ± 2,33 ± 3,15 ± 1,7 ± 1,7 ± 1,15 ± 2,22 ± 2,,,,,COC(=O)C1C2(c3ccccc3)C(Cc3c[nH]c4ccccc34)NC3(C(=O)Nc4ccccc43)C12c1ccccc1 (centres unmarked) [Compound 11],49.3 ± 5.3,,,,,,,,
> 40,39 ± 3,> 40,23 ± 2,> 40,12 ± 1,> 40,23 ± 2,21 ± 2,4 ± 1,> 40,> 40,CC(C)CC1NC2(C(=O)Nc3ccccc32)C2(c3ccccc3)C(c3ccccc3)C12c1ccccc1 (centres unmarked) [Compound 22],,16,1,2,64 ± 6,132 ± 16,5,3,"HeLa cells with filopodia-like deformations ([8]; control cells 93%, lowest value over the compounds): ≥ 64%; HeLa cells with granular actin distributed diffusely in the cytoplasm (stress fibers disappeared) ([8]; maximum over the compounds): up to 38%; SI (selectivity index) Sk-mel-2 [2]: 3"
> 40,> 40,> 40,> 40,> 40,21 ± 2,> 40,> 40,25 ± 2,12 ± 1,> 40,> 40,CC[C@H](C)C1NC2(C(=O)Nc3ccccc32)C2(c3ccccc3)C(c3ccccc3)C12c1ccccc1 (some centres unmarked) [Compound 23],,13,3,3,165 ± 16,177 ± 20,8,3,SI (selectivity index) Sk-mel-2 [2]: 3
